Assay results reported in PubChem BioAssay AID1259407 (Chemical Carcinogenesis Research Information System (CCRIS), 2018).
Entries after “also recorded” stand apart in the source; their conditions may differ. Activity calls are given as the source filed them. No rule for the calls is given here.

Test system: CCRIS mutagenicity, Ames/micronucleus/aberration tests
Assay: CCRIS mutagenicity studies
[1] = Test System: AMES SALMONELLA TYPHIMURIUM, Strain/Indicator: TA98, Metabolic Activation: NONE, Method: PREINCUBATION
[2] = Test System: AMES SALMONELLA TYPHIMURIUM, Strain/Indicator: TA100, Metabolic Activation: NONE, Method: PREINCUBATION
[3] = Test System: AMES SALMONELLA TYPHIMURIUM, Strain/Indicator: TA1535, Metabolic Activation: NONE, Method: PREINCUBATION
[4] = Test System: AMES SALMONELLA TYPHIMURIUM, Strain/Indicator: TA1537, Metabolic Activation: NONE, Method: PREINCUBATION
[5] = Test System: AMES SALMONELLA TYPHIMURIUM, Strain/Indicator: TA98, Metabolic Activation: NONE, Method: STANDARD PLATE
[6] = Test System: AMES SALMONELLA TYPHIMURIUM, Strain/Indicator: TA100, Metabolic Activation: NONE, Method: STANDARD PLATE

Question: How did the mutagenic call (End Point: IN VITRO CHROMOSOMAL ABERRATIONS, Test System: CHO CELLS, Metabolic Activation: NONE) turn out when `NS(=O)(=O)c1cc(C(=O)O)c(NCc2ccco2)cc1Cl` was run?
Answer: active; positive; precipitation occurred at 3750 and 5000 ug/ml; also recorded: active; positive; precipitation occurred at 2513 ug/ml

Question: What about the mutagenic call (End Point: IN VITRO CHROMOSOMAL ABERRATIONS, Test System: CHO CELLS, Metabolic Activation: RAT, LIVER, S-9, AROCLOR 1254) of the same molecule?
Answer: active; positive; precipitation occurred at all doses

Question: And the mutagenic call (Test System: AMES SALMONELLA TYPHIMURIUM, Strain/Indicator: TA98, Metabolic Activation: HAMSTER, LIVER, S-9, AROCLOR 1254 (10%), Method: PREINCUBATION)?
Answer: inactive; negative

Question: What about the mutagenic call (Test System: AMES SALMONELLA TYPHIMURIUM, Strain/Indicator: TA98, Metabolic Activation: HAMSTER, LIVER, S-9, AROCLOR 1254, Method: PREINCUBATION) of the same molecule?
Answer: inactive; negative

Question: And the mutagenic call [1]?
Answer: inactive; negative

Question: And the mutagenic call (Test System: AMES SALMONELLA TYPHIMURIUM, Strain/Indicator: TA98, Metabolic Activation: RAT, LIVER, S-9, AROCLOR 1254 (10%), Method: PREINCUBATION)?
Answer: inactive; negative

Question: What about the mutagenic call (Test System: AMES SALMONELLA TYPHIMURIUM, Strain/Indicator: TA98, Metabolic Activation: RAT, LIVER, S-9, AROCLOR 1254, Method: PREINCUBATION) of the same molecule?
Answer: inactive; negative

Question: And the mutagenic call (Test System: AMES SALMONELLA TYPHIMURIUM, Strain/Indicator: TA100, Metabolic Activation: HAMSTER, LIVER, S-9, AROCLOR 1254 (10%), Method: PREINCUBATION)?
Answer: inactive; negative

Question: And the mutagenic call (Test System: AMES SALMONELLA TYPHIMURIUM, Strain/Indicator: TA100, Metabolic Activation: HAMSTER, LIVER, S-9, AROCLOR 1254, Method: PREINCUBATION)?
Answer: inactive; negative

Question: And the mutagenic call [2]?
Answer: inactive; negative

Question: And the mutagenic call (Test System: AMES SALMONELLA TYPHIMURIUM, Strain/Indicator: TA100, Metabolic Activation: RAT, LIVER, S-9, AROCLOR 1254 (10%), Method: PREINCUBATION)?
Answer: inactive; negative

Question: And the mutagenic call (Test System: AMES SALMONELLA TYPHIMURIUM, Strain/Indicator: TA100, Metabolic Activation: RAT, LIVER, S-9, AROCLOR 1254, Method: PREINCUBATION)?
Answer: inactive; negative

Question: What about the mutagenic call (Test System: AMES SALMONELLA TYPHIMURIUM, Strain/Indicator: TA1535, Metabolic Activation: HAMSTER, LIVER, S-9, AROCLOR 1254 (10%), Method: PREINCUBATION) of the same molecule?
Answer: inactive; negative

Question: What about the mutagenic call (Test System: AMES SALMONELLA TYPHIMURIUM, Strain/Indicator: TA1535, Metabolic Activation: HAMSTER, LIVER, S-9, AROCLOR 1254, Method: PREINCUBATION) of the same molecule?
Answer: inactive; negative

Question: And the mutagenic call [3]?
Answer: inactive; negative

Question: And the mutagenic call (Test System: AMES SALMONELLA TYPHIMURIUM, Strain/Indicator: TA1535, Metabolic Activation: RAT, LIVER, S-9, AROCLOR 1254 (10%), Method: PREINCUBATION)?
Answer: inactive; negative

Question: What about the mutagenic call (Test System: AMES SALMONELLA TYPHIMURIUM, Strain/Indicator: TA1535, Metabolic Activation: RAT, LIVER, S-9, AROCLOR 1254, Method: PREINCUBATION) of the same molecule?
Answer: inactive; negative

Question: And the mutagenic call (Test System: AMES SALMONELLA TYPHIMURIUM, Strain/Indicator: TA1537, Metabolic Activation: HAMSTER, LIVER, S-9, AROCLOR 1254 (10%), Method: PREINCUBATION)?
Answer: inactive; negative

Question: And the mutagenic call (Test System: AMES SALMONELLA TYPHIMURIUM, Strain/Indicator: TA1537, Metabolic Activation: HAMSTER, LIVER, S-9, AROCLOR 1254, Method: PREINCUBATION)?
Answer: inactive; negative

Question: What about the mutagenic call [4] of the same molecule?
Answer: inactive; negative

Question: And the mutagenic call (Test System: AMES SALMONELLA TYPHIMURIUM, Strain/Indicator: TA1537, Metabolic Activation: RAT, LIVER, S-9, AROCLOR 1254 (10%), Method: PREINCUBATION)?
Answer: inactive; negative

Question: And the mutagenic call (Test System: AMES SALMONELLA TYPHIMURIUM, Strain/Indicator: TA1537, Metabolic Activation: RAT, LIVER, S-9, AROCLOR 1254, Method: PREINCUBATION)?
Answer: inactive; negative

Question: And the mutagenic call (Test System: MOUSE LYMPHOMA, Strain/Indicator: L5178Y (TK+/TK-), Metabolic Activation: NONE, Method: SUSPENSION/PLATE)?
Answer: inactive; negative

Question: What about the mutagenic call (Test System: MOUSE LYMPHOMA, Strain/Indicator: L5178Y (TK+/TK-), Metabolic Activation: RAT, LIVER, S-9, AROCLOR 1254, Method: SUSPENSION/PLATE) of the same molecule?
Answer: active; positive

Question: For `CCCCO`, which mutagenic call [5] is on record?
Answer: inactive; negative

Question: What about the mutagenic call (Test System: AMES SALMONELLA TYPHIMURIUM, Strain/Indicator: TA98, Metabolic Activation: RAT, LIVER, S-9, AROCLOR, Method: STANDARD PLATE) of the same molecule?
Answer: inactive; negative

Question: And the mutagenic call [6]?
Answer: inactive; negative

Question: And the mutagenic call (Test System: AMES SALMONELLA TYPHIMURIUM, Strain/Indicator: TA100, Metabolic Activation: RAT, LIVER, S-9, AROCLOR, Method: STANDARD PLATE)?
Answer: inactive; negative

Question: What about the mutagenic call (Test System: AMES SALMONELLA TYPHIMURIUM, Strain/Indicator: UTH8413, Metabolic Activation: NONE, Method: STANDARD PLATE) of the same molecule?
Answer: inactive; negative

Question: What about the mutagenic call (Test System: AMES SALMONELLA TYPHIMURIUM, Strain/Indicator: UTH8413, Metabolic Activation: RAT, LIVER, S-9, AROCLOR, Method: STANDARD PLATE) of the same molecule?
Answer: inactive; negative

Question: What about the mutagenic call (Test System: AMES SALMONELLA TYPHIMURIUM, Strain/Indicator: UTH8414, Metabolic Activation: NONE, Method: STANDARD PLATE) of the same molecule?
Answer: inactive; negative

Question: What about the mutagenic call (Test System: AMES SALMONELLA TYPHIMURIUM, Strain/Indicator: UTH8414, Metabolic Activation: RAT, LIVER, S-9, AROCLOR, Method: STANDARD PLATE) of the same molecule?
Answer: inactive; negative

Question: With `Cc1ccc(N=Nc2c(O)ccc3ccccc23)cc1` as the molecule, how does the mutagenic call [5] read?
Answer: inactive; negative

Question: What about the mutagenic call (Test System: AMES SALMONELLA TYPHIMURIUM, Strain/Indicator: TA98, Metabolic Activation: RAT, LIVER, S-9, Method: STANDARD PLATE) of the same molecule?
Answer: inactive; negative

Question: And the mutagenic call [6]?
Answer: inactive; negative

Question: And the mutagenic call (Test System: AMES SALMONELLA TYPHIMURIUM, Strain/Indicator: TA100, Metabolic Activation: RAT, LIVER, S-9,, Method: STANDARD PLATE)?
Answer: inactive; negative

Question: Which mutagenic call [1] does the source give for `[O]=[Ce]=[O]` here?
Answer: inactive; negative

Question: What about the mutagenic call (Test System: AMES SALMONELLA TYPHIMURIUM, Strain/Indicator: TA98, Metabolic Activation: RAT, LIVER, S-9, KC 500, Method: PREINCUBATION) of the same molecule?
Answer: inactive; negative

Question: What about the mutagenic call [2] of the same molecule?
Answer: inactive; negative

Question: What about the mutagenic call (Test System: AMES SALMONELLA TYPHIMURIUM, Strain/Indicator: TA100, Metabolic Activation: RAT, LIVER, S-9, KC 500, Method: PREINCUBATION) of the same molecule?
Answer: inactive; negative

Question: And the mutagenic call [3]?
Answer: inactive; negative

Question: What about the mutagenic call (Test System: AMES SALMONELLA TYPHIMURIUM, Strain/Indicator: TA1535, Metabolic Activation: RAT, LIVER, S-9, KC 500, Method: PREINCUBATION) of the same molecule?
Answer: inactive; negative

Question: And the mutagenic call [4]?
Answer: inactive; negative

Question: What about the mutagenic call (Test System: AMES SALMONELLA TYPHIMURIUM, Strain/Indicator: TA1537, Metabolic Activation: RAT, LIVER, S-9, KC 500, Method: PREINCUBATION) of the same molecule?
Answer: inactive; negative

Question: What about the mutagenic call (Test System: AMES SALMONELLA TYPHIMURIUM, Strain/Indicator: TA1538, Metabolic Activation: NONE, Method: PREINCUBATION) of the same molecule?
Answer: inactive; negative

Question: And the mutagenic call (Test System: AMES SALMONELLA TYPHIMURIUM, Strain/Indicator: TA1538, Metabolic Activation: RAT, LIVER, S-9, KC 500, Method: PREINCUBATION)?
Answer: inactive; negative

Question: And the mutagenic call (Test System: E. COLI, Strain/Indicator: WP2 UVRA, Metabolic Activation: NONE, Method: PREINCUBATION)?
Answer: inactive; negative

Question: And the mutagenic call (Test System: E. COLI, Strain/Indicator: WP2 UVRA, Metabolic Activation: RAT, LIVER, S-9, KC 500, Method: PREINCUBATION)?
Answer: inactive; negative

Question: For `O=C(O)c1cc(Cl)cc2cccnc12`, which mutagenic call [5] is on record?
Answer: inactive; negative

Question: And the mutagenic call (Test System: AMES SALMONELLA TYPHIMURIUM, Strain/Indicator: TA98, Metabolic Activation: RAT, LIVER, S-9, AROCLOR 1254, Method: STANDARD PLATE)?
Answer: active; positive

Question: What about the mutagenic call [6] of the same molecule?
Answer: inactive; negative

Question: And the mutagenic call (Test System: AMES SALMONELLA TYPHIMURIUM, Strain/Indicator: TA100, Metabolic Activation: RAT, LIVER, S-9, AROCLOR 1254, Method: STANDARD PLATE)?
Answer: active; positive

Question: And the mutagenic call (Test System: AMES SALMONELLA TYPHIMURIUM, Strain/Indicator: TA1535, Metabolic Activation: NONE, Method: STANDARD PLATE)?
Answer: inactive; negative

Question: And the mutagenic call (Test System: AMES SALMONELLA TYPHIMURIUM, Strain/Indicator: TA1535, Metabolic Activation: RAT, LIVER, S-9, AROCLOR 1254, Method: STANDARD PLATE)?
Answer: inactive; negative

Question: And the mutagenic call (Test System: AMES SALMONELLA TYPHIMURIUM, Strain/Indicator: TA1537, Metabolic Activation: NONE, Method: STANDARD PLATE)?
Answer: inactive; negative

Question: What about the mutagenic call (Test System: AMES SALMONELLA TYPHIMURIUM, Strain/Indicator: TA1537, Metabolic Activation: RAT, LIVER, S-9, AROCLOR 1254, Method: STANDARD PLATE) of the same molecule?
Answer: active; positive
